{"source": "patent US5385885A", "about": "“Inhibition of smooth muscle cell proliferation by antistasin and tick anticoagulant peptide” (priority 1991, dated 1995)", "key": {"[1]": {"test_system": "smooth muscle proliferative responses", "settings": "doses sufficiently high to prevent platelet adherence and release; Harker et al.; cited from earlier work"}, "smooth muscle cells [2]": {"test_system": "smooth muscle cells", "test": "Effect of antistasin and tick anticoagulant peptide on factor Xa induced mitogenesis of smooth muscle cells", "type": "cell-based, rat", "settings": "FIG. 2", "experimental": "Primary smooth muscle cell cultures were prepared from the thoracic and abdominal aorta of 2-3 month old Wistar rats essentially using the procedure of Reilly, C. F. (1990) J. Cell Physiol. 142,342 (1990). After removing as much fat and adherent adventitia as possible with scissors and forceps, the tissue was finely minced, enzymatically dissociated with successive 37° C. incubations in HBSS containing collagenase (Sigma, 0.5 mg/ml for 15 min.), then elastase (Sigma, 0.125 mg/ml for 30 min.) and again collagenase (60 min.). […] Cells were grown in Dulbecco's Minimal Essential Medium (DMEM) containing 10% fetal bovine serum (FBS) with antibiotics. […] Using a monoclonal antibody to alpha actin (Sigma Chemical Company, St. Louis, Mo.), about 60-80% (preparation dependent) of these confluent cells stained positive for this smooth muscle cell marker. After 10 days in culture, the cells were dissociated with trypsinethylene diamine tetraacetate (EDTA), split 1:10 and subcultured in the above medium. At confluence the cells were transferred to DMEM containing 0.1 % FBS for a 24 hour period before using them for assay. […]\n(§1) The prepared rat smooth muscle cells were seeded in Falcon 24 multiwell plates (10^5 cells/well) and cultured at 37° C., in a 5% CO2 atmosphere in 1 ml DMEM containing 10% FBS. […] The cells were washed twice with cold phosphate buffered saline (PBS), treated twice with 5% trichloroacetic acid (TCA) for 5 min., dissolved with 0.25N NaOH (0.4 ml) incubated at 37° C. for 60 min., mixed with 5 ml Ecolume (ICN Biomedicals, Costa Mesa, Calif.), and their radioactivity determined in a scintillation counter. […] Smooth muscle cell mitogenic activity produced by exogenous agents is expressed as % relative mitogenic activity which is defined as: [formula] […]\nThe effects of antistasin and tick anticoagulant peptide on factor Xa induced mitogenesis of smooth muscle cells were tested using the method shown in Example 4. […] At the end of the 24 hour incubation, ^3 H-thymidine incorporation into DNA was monitored and smooth muscle cell mitogenic activity was assessed as described in Example 4."}, "smooth muscle cells [3]": {"test_system": "smooth muscle cells", "test": "Effect of factor Xa inhibitors on human protein S and bovine factor X induced smooth muscle cell mitogenesis", "type": "cell-based, rat", "settings": "FIG. 3", "experimental": "Primary smooth muscle cell cultures were prepared from the thoracic and abdominal aorta of 2-3 month old Wistar rats essentially using the procedure of Reilly, C. F. (1990) J. Cell Physiol. 142,342 (1990). After removing as much fat and adherent adventitia as possible with scissors and forceps, the tissue was finely minced, enzymatically dissociated with successive 37° C. incubations in HBSS containing collagenase (Sigma, 0.5 mg/ml for 15 min.), then elastase (Sigma, 0.125 mg/ml for 30 min.) and again collagenase (60 min.). […] Cells were grown in Dulbecco's Minimal Essential Medium (DMEM) containing 10% fetal bovine serum (FBS) with antibiotics. […]\nas §1"}, "[4]": {"target": "blood coagulation factor Xa (Homo sapiens, UniProt P00742)", "sequence (P00742 235-488 limits assumed)": "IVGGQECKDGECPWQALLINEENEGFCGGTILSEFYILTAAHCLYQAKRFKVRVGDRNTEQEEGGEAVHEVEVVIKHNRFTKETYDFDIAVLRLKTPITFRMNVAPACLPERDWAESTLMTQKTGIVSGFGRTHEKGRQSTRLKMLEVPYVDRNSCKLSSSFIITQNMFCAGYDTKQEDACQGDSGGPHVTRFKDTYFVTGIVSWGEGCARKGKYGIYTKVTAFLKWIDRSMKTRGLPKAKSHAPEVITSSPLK", "sequence (P00742 41-179 partner limits assumed)": "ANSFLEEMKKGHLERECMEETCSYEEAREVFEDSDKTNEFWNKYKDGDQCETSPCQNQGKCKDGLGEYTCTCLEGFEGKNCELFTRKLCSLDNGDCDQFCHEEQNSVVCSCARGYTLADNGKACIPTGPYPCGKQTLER", "settings": "Waxman et al.; cited from earlier work"}, "Factor VIIa": {"target": "T1, Factor VIIa (Homo sapiens, UniProt P08709)", "T1 sequence (P08709 213-466 limits assumed)": "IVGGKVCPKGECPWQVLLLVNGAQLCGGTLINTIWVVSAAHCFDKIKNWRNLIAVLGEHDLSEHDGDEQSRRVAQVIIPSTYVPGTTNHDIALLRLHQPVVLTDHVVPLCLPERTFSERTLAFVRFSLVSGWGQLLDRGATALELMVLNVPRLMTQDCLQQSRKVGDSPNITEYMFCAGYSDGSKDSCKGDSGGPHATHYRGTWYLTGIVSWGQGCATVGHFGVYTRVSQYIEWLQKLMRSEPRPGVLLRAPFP", "T1 sequence (P08709 61-212 partner limits assumed)": "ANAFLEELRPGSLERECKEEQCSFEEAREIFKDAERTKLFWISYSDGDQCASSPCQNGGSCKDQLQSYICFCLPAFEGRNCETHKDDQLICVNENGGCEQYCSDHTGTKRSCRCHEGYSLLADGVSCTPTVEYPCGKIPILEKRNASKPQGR", "settings": "Waxman et al.; cited from earlier work"}, "kallikrein": {"test_system": "kallikrein", "settings": "Waxman et al.; cited from earlier work"}, "trypsin": {"target": "T2, trypsin (Bos taurus, UniProt P00760)", "T2 construct": "gene PRSS1", "T2 sequence (P00760 24-246)": "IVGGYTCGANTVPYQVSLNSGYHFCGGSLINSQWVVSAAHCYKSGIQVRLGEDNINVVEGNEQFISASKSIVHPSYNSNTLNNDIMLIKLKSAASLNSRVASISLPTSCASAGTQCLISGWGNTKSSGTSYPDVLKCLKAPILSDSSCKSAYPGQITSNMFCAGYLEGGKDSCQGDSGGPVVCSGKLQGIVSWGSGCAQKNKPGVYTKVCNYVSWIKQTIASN", "settings": "Waxman et al.; cited from earlier work"}, "chymotrypsin": {"target": "chymotrypsin (Bos taurus, UniProt P00766)", "settings": "Waxman et al.; cited from earlier work"}, "thrombin": {"target": "thrombin (Homo sapiens, UniProt P00734)", "settings": "Waxman et al.; cited from earlier work"}, "[5]": {"test_system": "human venous endothelial cells", "test": "Release of mitogens from endothelial cells stimulated with factor Xa; conditioned media tested for mitogenic activity on 3T3 cells", "type": "cell-based", "settings": "1 unit = activity induced by 2 ng/ml PDGF, FXa 1 nM, ATS 5 nM, PDGF 2 ng/ml, 16 h", "experimental": "(§2) Confluent primary cultures or subcultures (passages 1 and 2) of human venous endothelial cells (EC) were cultured in serum-free Dulbecco's Minimal Essential Medium (DMEM)+0.1% bovine serum albumin (BSA) in the presence of human or bovine factor Xa(1 nM) (Sigma Chemical Co., St. Louis, Mo.), antistasin (ATS) (0.5-5.0 nM), or both. Control cultures were untreated or received 2 ng/ml platelet-derived growth factor (PDGF) (Sigma Chemical Co., St. Louis, Mo.). After 16 hours incubation at 37° C., the conditioned media (CM) from the test and control cell cultures were collected and tested for mitogenic activity (MIT) using confluent NIH 3T3 cells (CCL 163, American Type Culture Collection, Rockville, Md.).\n(§3) Primary cultures of EC derived from umbilical cord veins were prepared and grown according to a protocol provided to by Dr. Gwendolyn Stewart (Temple University Thrombosis Center, Phila., Pa.). After washing the lumen of the vein twice with DMEM, EC were dissociated with a solution containing 0.05% trypsin and 0.1% collagenase. Thirty minutes later, the venous content and the perfused DMEM (35 ml) was collected into a fifty ml centrifuge tube containing 3.5 ml of bovine serum and the mixture spun at 900 rpm for 10 minutes. The supernate was discarded and the cell pellet resuspended in 3.0 ml DMEM containing 20% fetal bovine serum (FBS) (heat inactivated at 56° C. for 30 minutes), 90 μg heparin per ml, 5 μg fibronectin per ml, and 60 μg endothelial growth factor per ml (cDMEM), and seeded into 35 mm tissue culture dishes. After 24 hours of incubation at 37 °C, 5% CO2, the culture was washed 3-4 times with DMEM and incubated 2-4 days until the cells were confluent. The monolayers were washed with phosphate buffered saline (PBS) and cultured in DMEM with 0.1% BSA in the presence and absence of 1 nM factor Xa, 5 nM antistasin, or a mixture of both. As positive and negative controls, separated monolayers were incubated with the medium plus 2 ng/ml PDGF or with the medium alone. After 16 hours of incubation at 37° C., conditioned media (CM) were collected, centrifuged at 4000×g for 10 minutes, and the supernate was collected and stored at 4° C. until use. The mitogenic activity of the CM was tested by measuring the incorporation of [^3 H] thymidine into cultures of Balb 3T3 cells. For this purpose, wells were seeded with 2×10^4 3T3 cells suspended in 1 ml DMEM with 10% FBS. Once confluent (5-7 days of culture), CM were added and cells incubated for 18 hours at 37° C. after which cultures were washed with warm DMEM, tritiated thymidine added (1 μCi/ml) and cells incubated for 4 hours at 37° C. […] The lysate was transferred to vials with scintillation fluid and radioactivity monitored in a beta radiation counter. […]"}, "[6]": {"test_system": "human venous endothelial cells", "test": "Release of mitogens from endothelial cells stimulated with PDGF; conditioned media tested for mitogenic activity on 3T3 cells", "type": "cell-based", "settings": "PDGF 2 ng/ml, ATS 5 nM, 16 h", "experimental": "as §2, with “cells” for “cells (EC)”, “platelet-derived growth” for “human or bovine”, “(PDGF) (2 ng/ml),” for “Xa(1 nM) (Sigma Chemical Co., St. Louis, Mo.),”, “(5.0-10” for “(0.5-5.0”, “PDGF.” for “platelet-derived growth factor (PDGF) (Sigma Chemical Co., St. Louis, Mo.).”, “C.,” for “C., the”\nas §3, with “2 ng/ml PDGF,” for “1 nM factor Xa,”, “alone.” for “alone. After 16 hours of incubation at 37° C., conditioned media (CM) were collected, centrifuged at 4000×g for 10 minutes, and the supernate was collected and stored at 4° C. until use. The mitogenic activity of the CM was tested by measuring the incorporation of [^3 H] thymidine into cultures of Balb 3T3 cells. For this purpose, wells were seeded with 2×10^4 3T3 cells suspended in 1 ml DMEM with 10% FBS. Once confluent (5-7 days of culture), CM were added and cells incubated for 18 hours at 37° C. after which cultures were washed with warm DMEM, tritiated thymidine added (1 μCi/ml) and cells incubated for 4 hours at 37° C.”"}}, "note": "“Also recorded” adds a separate entry of the source."}
{"compound": "OCCN(CCO)c1nc(N2CCCCC2)c2nc(N(CCO)CCO)nc(N3CCCCC3)c2n1", "note": "[dipyridamole]", "values": [{"measurement": "Smooth muscle proliferative responses", "setting": "[1]", "value": "prevented"}]}
{"compound": "tick anticoagulant peptide (YNRLCIKPRDWIDECDSNEGGERAYFRNGKGGCDSFWICPEDHTGADYYSSYRDCFNACI; UniProt P17726 1-60, looked up) [TAP, 60-amino acid peptide isolated from extracts of the soft tick Ornithodoros moubata]", "values": [{"measurement": "Relative mitogenic activity above control", "setting": "smooth muscle cells [2]; 10 nM fXa and 3-25 nM TAP", "value": "about 25%"}, {"measurement": "Relative mitogenic activity above control", "setting": "smooth muscle cells [2]; 10 nM fXa and 50-62 nM TAP", "value": "about 9%"}, {"measurement": "Relative mitogenic activity above control", "setting": "smooth muscle cells [2]; 10 nM fXa with 100-250 nM TAP", "value": "near zero"}, {"measurement": "Inhibition of relative mitogenic activity of bovine factor X", "setting": "smooth muscle cells [3]; 10 nM bovine factor X with 100 nM TAP", "value": "not significantly inhibited"}, {"measurement": "Inhibition of relative mitogenic activity of protein S", "setting": "smooth muscle cells [3]; protein S with 250 nM TAP", "value": "abolished"}, {"measurement": "Inhibition of blood factor Xa", "setting": "[4]", "value": "highly specific inhibitor; also recorded: potent inhibitor"}, {"measurement": "Effect on Factor VIIa", "setting": "Factor VIIa", "value": "no effect"}, {"measurement": "Effect on kallikrein", "setting": "kallikrein", "value": "no effect"}, {"measurement": "Effect on trypsin", "setting": "trypsin", "value": "no effect"}, {"measurement": "Effect on chymotrypsin", "setting": "chymotrypsin", "value": "no effect"}, {"measurement": "Effect on thrombin", "setting": "thrombin", "value": "no effect"}]}
{"compound": "PDGF [reference compound]", "values": [{"measurement": "Mitogenic units of EC conditioned media", "setting": "[5]; EXP 1", "value": 1.00, "unit": "mitogenic units"}, {"measurement": "Mitogenic units of EC conditioned media", "setting": "[5]; EXP 2", "value": 1.00, "unit": "mitogenic units"}, {"measurement": "Mitogenic units of EC conditioned media", "setting": "[5]; EXP 3", "value": 1.00, "unit": "mitogenic units"}, {"measurement": "Mitogenic units of EC conditioned media", "setting": "[5]; EXP 4", "value": 1.00, "unit": "mitogenic units"}, {"measurement": "Mitogenic units of EC conditioned media", "setting": "[6]; EXP 1", "value": 1.00, "unit": "mitogenic units"}, {"measurement": "Mitogenic units of EC conditioned media", "setting": "[6]; EXP 2", "value": 1.00, "unit": "mitogenic units"}, {"measurement": "Mitogenic units of EC conditioned media", "setting": "[6]; EXP 3", "value": 1.00, "unit": "mitogenic units"}]}
